In US11471467B2, “Ruthenium complexes for treating cancer which comprises cancer stem cells” (UNIVERSIDADE DE SANTIAGO DE COMPOSTELA, priority 2016, dated 2022):

Experiments:
c-MYC [1] = assay: c-MYC protein expression by Western blot in PDAC cells; format: cell-based
Method: FIG. 17. Effects of complex 2 (RuH2O) on pancreatic ductal adenocarcinoma (PDAC) cells.
FIG. 18. […] Western blot analysis of the expression of c-MYC in cultures 24 and 48 h after treatment with RuH2O.
(§1) On one hand, the inventors analyzed if complex 2 may increase c-MYC expression in pancreatic CSCs, and on the other hand, if the increase in c-MYC expression would negatively affect the CSC phenotype, for example, CSC self-renewal capacity. […] After having achieved a substantial increase in c-MYC expression, it was then analyzed if the CSC self-renewal capacity was affected. To that end, briefly the PDAC cells were pre-treated twice with complex 2 (RuH2O) at a concentration of 100 and 250 μM before establishing sphere cultures in […] as described in Cioffi M (Cioffi M et al. 2015 Gut 12: 1936-1948). The spheres were again treated on day 4 after sphere formation.

[2] = test system: Panc185 and PancA6L cells; assay: ToxiLight BioAssay cytotoxicity (adenylate kinase release); format: cell-based
Method: FIG. 20. Cytotoxic effects of RuH2O on PDAC cultures. Relative cell death was determined in adherent cultures (low in CSC) and spheres (rich in CSC) of Panc185 (A) and PancA6L (B) at 24, 48, and 72 hours after treatment with the indicated doses of RuH2O.
It was then studied if the […] c-MYC expression and the phenotype and transcriptional changes observed were cytotoxic. For this analysis, the ToxiLight™ BioAssay kit, a bioluminescent, non-destructive cytolysis assay kit designed for measuring the adenylate kinase (AK) enzyme released from damaged cells (FIG. 20), was used. Adherent cultures (low in CSC) and cultured spheres (rich in CSC) were treated with increasing doses of RuH2O and cytotoxicity was measured 24, 48, and 72 hours after treatment. In adherent cultures and in both assayed cell lines, toxicity was only observed at 72 hours (3-fold increase in dead cells) when the cells were treated with 250 μM of RuH2O.

PDAC cancer stem cells = assay: Sphere formation (self-renewal) of PDAC cancer stem cells; format: cell-based; conditions: for sphere formation capacity (self-renewal): PDAC cells pre-treated twice with 100 and 250 μM, treated again on day 4, against control cultures
Method: as §1
It was then evaluated if ruthenium complex 2 may negatively affect CSC phenotypes, such as self-renewal and tumorigenicity. […] During these 7 days, the samples were treated again with 250 μM of RuH2O on days 1, 3, and 5 after initiation of the spheres. […] The CSC spheres were smaller and less abundant in the RuH2O group.
(§2) The trypsinized cells were then: 1) placed in a plate at a low confluence to evaluate their clonogenicity (FIG. 25); 2) repeatedly cultured in ultra-low adherent plates in serum-free DMEM/F12 supplemented with B27 for intervals of 7 days to evaluate sphere formation capacity over multiple generations (FIG. 26); and 3) subcutaneously injected into NOD-SCID mice to check their tumorigenicity as described above (FIG. 27).

c-MYC [3] = assay: c-MYC protein expression by Western blot in HeLa cells; format: cell-based
Method: FIG. 11. (Left) Analysis of the expression levels of c-MYC (light colored bars) and ALAS1 (dark colored bars) by means of qRT-PCR. HeLa cells were incubated for 16 h or 48 h with 100 μM of complex 1 (RuCl), TMPyP4, or 50 μM of 5-FU. The levels are expressed in relation to the expression levels of the GAPDH gene. The values are the average of three experiments, and the error bars indicate standard error. (Right) Analysis of the expression of c-MYC by means of Western blot. HeLa cells were incubated for 16 h with 100 μM of complex 1 (RuCl) and then lysed, and c-MYC was detected by means of SDS-PAGE followed by Western blot with an anti-MYC antibody (right, upper panel). The relative amount of protein in two independent experiments was quantified by means of densitometry (right, lower panel). The data is represented as the factor of change with respect to untreated controls. The error bars indicate the standard deviation of the factor of change with respect to untreated controls.
FIG. 14. (Left) Transcription levels of c-MYC determined by means of qRT-PCR in the dark (black bars) or after irradiation (60 min, white bars). […] The expression values are relative to the expression of the GAPDH gene. (Right) Expression levels of c-MYC protein determined by means of Western blot in the presence or absence of complex 5. The relative amount of protein with respect to the expression levels of β-actin was quantified by means of densitometry (lower panel). The experimental method was similar to the one described in FIG. 11.
FIG. 15. […] The light colored bars correspond to expression levels of c-MYC under irradiation conditions whereas the dark colored bars correspond to darkness conditions. […] The relative levels of protein with respect to the expression levels of β-actin were quantified by means of densitometry.
HeLa cells were incubated to a confluence of 50% in the presence of the indicated concentrations of the assayed agents for 16 h. […] The c-MYC protein was detected by means of an anti-MYC antibody (Santa-Cruz Biotechnologies). […]

[4] = test system: guanosine monophosphate (GMP); assay: GMP binding (metallation) assay, HPLC; conditions: complex 250 μM, GMP 750 μM, 10 mM phosphate buffer pH 7.5, 100 mM NaCl
Method: High-performance liquid chromatography (HPLC) was carried out using Agilent 1100 liquid chromatography-mass spectrometer equipment. Analytical HPLC was carried out using a Phenomenex Luna-C18 reversed-phase analytical column (10×250 mm, 5 μm), 1 mL/min, with different gradients (see below). […] Electrospray ionization mass spectrometry (ESI/MS) was performed with an Agilent 1100 Series LC/MSD VL G1956A model in positive polarity mode.
First, guanosine monophosphate (GMP) metallating capacity of complex 1 was studied. To that end, complex 1 (250 μM) was mixed with 3 equivalents of GMP (750 μM) in 10 mM phosphate buffer (pH=7.5) and 100 mM NaCl.
To confirm that GMP metallation is completely orthogonal, competitive experiments were carried out with the other three nucleotides (AMP, CMP, and TMP). Specifically, complex 1 (250 μM) was mixed with GMP (3 equiv, 750 μM), AMP (3 equiv, 750 μM), TMP (3 equiv, 750 μM), and CMP (3 equiv, 750 μM) in 10 mM phosphate buffer (pH=7.5) and 100 mM NaCl.
To that end, complex 1 (250 μM) was mixed with GMP (3 equiv, 750 μM) in the presence of H-Lys(Boc)-OH (3 equiv, 750 μM) or Ac-Cys-OH (3 equiv, 750 μM) in 10 mM phosphate buffer (pH=7.5) and 100 mM NaCl.
Complex 4 (250 μM) was mixed with 3 equivalents of GMP (750 μM) in 10 mM phosphate buffer (pH=7.5) and 100 mM NaCl.

[5] = test system: Panc185 and PancA6L cells; assay: Clonogenicity of PDAC cells; format: cell-based; conditions: adherent cultures treated 48 hours with 100 or 250 μM, 10 days in culture
Method: FIG. 25. Clonogenicity of PDAC cells after treatment with RuH2O. (Top) Light micrographs of Panc185 and PancA6L colonies formed after 10 days in culture. The colonies were visualized with crystal violet staining. (Bottom) Colony efficiency quantification. The colonies were lysed in PBS-1% Triton-X and color intensity was measured with a plate reader.
as §2

[Ru(terpy) (bpy)H2O]^2+ [complex 2]
c-MYC protein expression (c-MYC [1]; PDAC cells, 100 and 250 μM, 6, 12 or 24 hours): expression of c-MYC increased after treatment
c-MYC protein expression (c-MYC [1]; PDAC cells, 100 and 250 μM, 6, 12 or 24 hours, listed as Complex 2): increases the expression of c-MYC
c-MYC protein expression (c-MYC [1]; Panc185 and PancA6L cells, 100 μM, 24 hours after treatment): increased c-MYC protein expression
c-MYC protein levels (c-MYC [1]; Panc185 and PancA6L cells, 48 hours after treatment): significant decrease in c-MYC protein levels
increase in dead cells ([2]; adherent cultures (low in CSC), both cell lines, 250 μM, 72 hours): 3 fold
toxicity (ToxiLight) ([2]; adherent cultures (low in CSC), single dose 100 or 250 μM, 48 hours): no toxicity was observed
cell death ([2]; spherical cultures (rich in CSC), 100 μM): induced cell death
sphere formation capacity (self-renewal) (PDAC cancer stem cells): significant, dose-dependent reduction in the sphere formation capacity
sphere formation capacity (self-renewal) (PDAC cancer stem cells; listed as Complex 2): reduces the self-renewal capacity
sphere formation capacity (PDAC cancer stem cells; PDAC cells, 250 μM for 24 hours, again on days 1, 3 and 5, against control): significant reduction in the sphere formation capacity
self-regeneration (sphere formation over multiple generations) (PDAC cancer stem cells; adherent cultures treated 48 hours with 100 or 250 μM): prevents clonogenicity, self-regeneration, and tumorigenicity
c-MYC protein expression (c-MYC [3]; in the dark): active both in the dark and upon being irradiated
c-MYC protein expression (c-MYC [3]; under irradiation with light): active both in the dark and upon being irradiated
GMP metallation, conversion to monoadduct 3 ([4]; 30 min at room temperature in the dark): 63%
GMP metallation, conversion to monoadduct 3 ([4]; 30 min irradiation at 455 nm): complete conversion
clonogenicity [5]: prevents clonogenicity, self-regeneration, and tumorigenicity
